From US20230129359A1, “MUSCARINIC RECEPTOR 4 ANTAGONISTS AND METHODS OF USE” (Neurocrine Biosciences, Inc., priority 2020, published 2023)

Biological target: T1, human M4 receptor (Homo sapiens, UniProt P08173)
T1 construct: expressed in transfected cells; host or cells: CHO cells
T1 sequence (P08173 1-479): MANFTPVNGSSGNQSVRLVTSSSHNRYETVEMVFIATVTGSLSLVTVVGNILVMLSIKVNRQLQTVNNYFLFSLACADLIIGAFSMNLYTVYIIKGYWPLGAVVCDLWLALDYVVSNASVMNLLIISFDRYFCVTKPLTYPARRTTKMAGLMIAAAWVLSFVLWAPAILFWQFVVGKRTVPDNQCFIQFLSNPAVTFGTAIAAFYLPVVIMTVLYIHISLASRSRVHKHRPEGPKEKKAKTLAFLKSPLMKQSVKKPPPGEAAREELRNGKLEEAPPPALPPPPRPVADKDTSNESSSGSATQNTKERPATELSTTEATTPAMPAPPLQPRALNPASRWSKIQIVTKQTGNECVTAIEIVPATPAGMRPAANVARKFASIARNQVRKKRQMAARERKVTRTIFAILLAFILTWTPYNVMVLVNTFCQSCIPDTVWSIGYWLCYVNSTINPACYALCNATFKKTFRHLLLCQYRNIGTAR
Assay: Radioligand ([3H]N-methylscopolamine) binding assay, membranes from CHO cells expressing human M4 receptor
Conditions: Ki against human M4 receptor; membranes from CHO cells; tritiated N-methylscopolamine 1.5 nM; read-out: K
In short: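 Ki values derive from displacement of tritiated N-methylscopolamine (1.5 nM) from human M4 receptor in CHO membranes. Membranes, radioligand and twelve-point compound series were incubated together at 37 °C for 90 minutes in pH 7.4 HEPES/NaCl/MgCl2/EDTA buffer. Rapid vacuum filtration over polyethylenimine-pretreated filters was followed by radioactivity counting.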

SMILES	Ki [nM]
[2H]c1c([2H])c([2H])c(C([2H])([2H])N2CC3(CC(OC(=O)N4C[C@H](C)N(c5cnc(C(F)(F)F)cn5)C[C@H]4C)C3)C2)c([2H])c1[2H] [Compound 361, 2-[(^2H5)phenyl(^2H2)methyl]-2-azaspiro[3.3]heptan-6-yl (2R,5S)-2,5-dimethyl-4-[5-(trifluoromethyl)pyrazin-2-yl]piperazine-1-carboxylate]	10 to 100
C[C@@H]1CN(c2cnc3cc(F)ccc3n2)[C@@H](C)CN1C(=O)OC1CC2(C1)CN(Cc1ccccc1)C2 [Compound 363, 2-benzyl-2-azaspiro[3.3]heptan-6-yl (2R,5S)-4-(6-fluoroquinoxalin-2-yl)-2,5-dimethylpiperazine-1-carboxylate]	10 to 100
C[C@@H]1CN(c2nc3ccc(C(F)(F)F)cc3s2)C[C@H](C)N1C(=O)OC1CC2(C1)CN(Cc1ccccc1)C2 [Compound 364, 2-benzyl-2-azaspiro[3.3]heptan-6-yl (2R,6S)-2,6-dimethyl-4-[6-(trifluoromethyl)-1,3-benzothiazol-2-yl]piperazine-1-carboxylate]	< 10
C[C@@H]1CN(c2nc3cc(C(F)(F)F)cnc3s2)C[C@H](C)N1C(=O)OC1CC2(C1)CN(Cc1ccccc1)C2 [Compound 365, 2-benzyl-2-azaspiro[3.3]heptan-6-yl (2R,6S)-2,6-dimethyl-4-[6-(trifluoromethyl)-[1,3]thiazolo[5,4-b]pyridin-2-yl]piperazine-1-carboxylate]	< 10
C[C@@H]1CN(c2nc3cc(C(F)(F)F)cnc3s2)C[C@@H](C)N1C(=O)OC1CC2(C1)CN(Cc1ccccc1)C2 [Compound 366, 2-benzyl-2-azaspiro[3.3]heptan-6-yl (2R,6R)-2,6-dimethyl-4-[6-(trifluoromethyl)-[1,3]thiazolo[5,4-b]pyridin-2-yl]piperazine-1-carboxylate]	10 to 100
C[C@@H]1CN(c2nc3cc(C(F)(F)F)cnc3s2)[C@@H](C)CN1C(=O)OC1CC2(C1)CN(Cc1ccccc1)C2 [Compound 367, 2-benzyl-2-azaspiro[3.3]heptan-6-yl (2R,5S)-2,5-dimethyl-4-[6-(trifluoromethyl)-[1,3]thiazolo[4,3-b]pyridin-2-yl]piperazine-1-carboxylate]	< 10
C[C@@H]1CN(c2nc3ccc(F)cc3s2)C[C@H](C)N1C(=O)OC1CC2(C1)CN(Cc1ccccc1)C2 [Compound 368, 2-benzyl-2-azaspiro[3.3]heptan-6-yl (2R,6S)-4-(6-fluoro-1,3-benzothiazol-2-yl)-2,6-dimethylpiperazine-1-carboxylate]	< 10
C[C@@H]1CN(c2nc3ccc(F)cc3s2)C[C@@H](C)N1C(=O)OC1CC2(C1)CN(Cc1ccccc1)C2 [Compound 369, 2-benzy-2-azaspiro[3.3]heptan-6-yl (2R,6R)-4-(6-fluoro-1,3-benzothiazol-2-yl)-2,6-dimethylpiperazine-1-carboxylate]	10 to 100
C[C@@H]1CN(c2nc3ccc(F)cc3s2)[C@@H](C)CN1C(=O)OC1CC2(C1)CN(Cc1ccccc1)C2 [Compound 370, 2-benzyl-2-azaspiro[3.3]heptan-6-yl (2R,5S)-4-(6-fluoro-1,3-benzothiazol-2-yl)-2,5-dimethylpiperazine-1-carboxylate]	< 10
C[C@@H]1CN(c2nc3ccc(C(F)(F)F)cc3s2)[C@@H](C)CN1C(=O)OC1CC2(C1)CN(Cc1ccccc1)C2 [Compound 372, 2-benzyl-2-azaspiro[3.3]heptan-6-yl (2R,5S)-2,5-dimethyl-4-[6-(trifluoromethyl)-1,3-benzothiazol-2-yl]piperazine-1-carboxylate]	< 10
C[C@@H]1CN(c2ncc3ccccc3n2)C[C@H](C)N1C(=O)OC1CC2(C1)CN(Cc1ccccc1)C2 [Compound 377, 2-benzyl-2-azaspiro[3.3]heptan-6-yl (2R,6S)-2,6-dimethyl-4-(quinazolin-2-yl)piperazine-1-carboxylate]	100 to 1000
C[C@@H]1CN(c2cnc3cc(C(F)(F)F)ccc3n2)C[C@H](C)N1C(=O)OC1CC2(C1)CN(Cc1ccccc1)C2 [Compound 378, 2-benzyl-2-azaspiro[3.3]heptan-6-yl (2R,6S)-2,6-dimethyl-4-[6-(trifluoromethyl)quinoxalin-2-yl]piperazine-1-carboxylate]	< 10
COc1ccc2nc(N3C[C@@H](C)N(C(=O)OC4CC5(C4)CN(Cc4ccccc4)C5)[C@@H](C)C3)cnc2c1 [Compound 379, 2-benzyl-2-azaspiro[3.3]heptan-6-yl (2R,6S)-4-(6-methoxyquinoxalin-2-yl)-2,6-dimethylpiperazine-1-carboxylate]	10 to 100
C[C@@H]1CN(c2cnc3cc(C(F)(F)F)ccc3n2)[C@@H](C)CN1C(=O)OC1CC2(C1)CN(Cc1ccccc1)C2 [Compound 380, 2-benzyl-2-azaspiro[3.3]heptan-6-yl (2R,5S)-2,5-dimethyl-4-[6-(trifluoromethyl)quinoxalin-2-yl]piperazine-1-carboxylate]	< 10
C[C@@H]1CN(c2nc3ccc(F)cc3s2)C[C@H](C)N1C(=O)OC1CC2(C1)CN(Cc1ccc(F)cc1)C2 [Compound 381, 2-[(4-fluorophenyl)methyl]-2-azaspiro[3.3]heptan-6-yl (2R,6S)-4-(6-fluoro-1,3-benzothiazol-2-yl)-2,6-dimethylpiperazine-1-carboxylate]	< 10
C[C@@H]1CN(c2nc3ccc(F)cc3s2)[C@@H](C)CN1C(=O)OC1CC2(C1)CN(Cc1ccc(F)cc1)C2 [Compound 383, 2-[(4-fluorophenyl)methyl]-2-azaspiro[3.3]heptan-6-yl (2R,5S)-4-(6-fluoro-1,3-benzothiazol-2-yl)-2,5-dimethylpiperazine-1-carboxylate]	< 10
C[C@@H]1CN(c2nc3ccc(C(F)(F)F)cc3s2)C[C@H](C)N1C(=O)OC1CC2(C1)CN(Cc1ccc(F)cc1)C2 [Compound 384, 2-[(4-fluorophenyl)methyl]-2-azaspiro[3.3]heptan-6-yl (2R,6S)-2,6-dimethyl-4-[6-(trifluoromethyl)-1,3-benzothiazol-2-yl]piperazine-1-carboxylate]	< 10
C[C@@H]1CN(c2nc3ccc(C(F)(F)F)cc3s2)C[C@@H](C)N1C(=O)OC1CC2(C1)CN(Cc1ccc(F)cc1)C2 [Compound 385, 2-[(4-fluorophenyl)methyl]-2-azaspiro[3.3]heptan-6-yl (2R,6R)-2,6-dimethyl-4-[6-(trifluoromethyl)-1,3-benzothiazol-2-yl]piperazine-1-carboxylate]	10 to 100
C[C@@H]1CN(c2nc3ccc(C(F)(F)F)cc3s2)[C@@H](C)CN1C(=O)OC1CC2(C1)CN(Cc1ccc(F)cc1)C2 [Compound 386, 2-[(4-fluorophenyl)methyl]-2-azaspiro[3.3]heptan-6-yl (2R,5S)-2,5-dimethyl-4-[6-(trifluoromethyl)-1,3-benzothiazol-2-yl]piperazine-1-carboxylate]	< 10
[2H]c1c([2H])c([2H])c(C([2H])([2H])N2CC3(CC(OC(=O)N4[C@H](C)CN(c5ncc(C(F)(F)F)cn5)C[C@@H]4C)C3)C2)c([2H])c1[2H] [Compound 387, 2-[(^2H5)phenyl(^2H2)methyl]-2-azaspiro[3.3]heptan-6-yl (2R,6S)-2,6-dimethyl-4-[5-(trifluoromethyl)pyrimidin-2-yl]piperazine-1-carboxylate]	< 10
[2H]c1c([2H])c([2H])c(C([2H])([2H])N2CC3(CC(OC(=O)N4[C@H](C)CN(c5cnc(C(F)(F)F)cn5)C[C@@H]4C)C3)C2)c([2H])c1[2H] [Compound 388, 2-[(^2H5)phenyl(^2H2)methyl]-2-azaspiro[3.3]heptan-6-yl (2R,6S)-2,6-dimethyl-4-[5-(trifluoromethyl)pyrazin-2-yl]piperazine-1-carboxylate]	10 to 100
C[C@@H]1CN(c2cnc3ccccc3n2)C[C@H](C)N1C(=O)OC1CC2(C1)CN(Cc1ccc(F)cc1)C2 [Compound 391, 2-[(4-fluorophenyl)methyl]-2-azaspiro[3.3]heptan-6-yl (2R,6S)-2,6-dimethyl-4-(quinoxalin-2-yl)piperazine-1-carboxylate]	10 to 100
C[C@@H]1CN(c2ncc3ccccc3n2)C[C@H](C)N1C(=O)OC1CC2(C1)CN(Cc1ccc(F)cc1)C2 [Compound 392, 2-[(4-fluorophenyl)methyl]-2-azaspiro[3.3]heptan-6-yl (2R,6S)-2,6-dimethyl-4-(quinazolin-2-yl)piperazine-1-carboxylate]	< 10
C[C@@H]1CN(c2cnc3ccccc3n2)[C@@H](C)CN1C(=O)OC1CC2(C1)CN(Cc1ccc(F)cc1)C2 [Compound 394, 2-[(4-fluorophenyl)methyl]-2-azaspiro[3.3]heptan-6-yl (2R,5S)-2,5-dimethyl-4-(quinoxalin-2-yl)piperazine-1-carboxylate]	10 to 100
COc1ccc2nc(N3C[C@@H](C)N(C(=O)OC4CC5(C4)CN(Cc4ccc(F)cc4)C5)[C@@H](C)C3)cnc2c1 [Compound 395, 2-[(4-fluorophenyl)methyl]-2-azaspiro[3.3]heptan-6-yl (2R,6S)-4-(6-methoxyquinoxalin-2-yl)-2,6-dimethylpiperazine-1-carboxylate]	10 to 100
